Patent US20230277491A1, “PHARMACEUTICAL COMBINATION COMPRISING GLYCOLIC ACID AND L-ALANINE” (priority 2020, published 2023)

How the values were obtained:
[1] = human, in vivo
Method: Preliminary pharmacokinetic analyses were undertaken in order to determine whether the GA and DL administered to the patients orally were absorbed into the blood stream and into the CSF. […] As can also be observed, DL levels reach 140 mg/L in the blood 1-hour post-administration and are reduced to approx. 20 mg/I after 2- or 3-hours post-administration.
As can be observed in FIG. 9, GA levels are approximately 20 mg/I in the CSF 1-hour post-administration. As can also be observed, DL levels are approximately 5 mg/I in the CSF 1-hour post-administration. 100 mg/kg GA and 100 mg/kg DL was administered in patients to obtain the pharmacokinetic data.

dopaminergic neurons [2] = assay: Morphology of dopaminergic TH+ neurons in primary mesencephalic culture; type: cell-based, mouse; details: 5 mM GA, FIG. 14
Method: Effect of GA treatment on the morphology of dopaminergic neurons. Fluorescent microscopy images on the left show to TH+ neurons in a primary mesencephalic cell culture with (GA) and without (Control) treatment. […] FIG. 16:
Primary mesencephalic neuronal cell cultures were prepared as previously described. Briefly, E14.5 embryos were obtained from C57JBL6 pregnant mice after cervical dislocation. Brain mesencephali were dissected under the microscope and digested with Trypsin-EDTA 0.12% (Life Technologies, USA) for 7 min. The trypsin reaction was then stopped by adding basic medium (BM), containing Neurobasal A medium (Gibco, USA), 1 mg/mL Pen/Strep, 10% FCS, and […] L-Glutamine, and cells were mechanically dissociated using a fire-polished Pasteur pipette. Medium was fully replaced after 5 min, centrifugation at 1200 rpm, aspiring the supernatant and adding 8 mL of fresh BM to the pellet. Concentration of cells in the medium was estimated using a Neubauer chamber and a 100 μL of medium containing 10^6 cells/mL plated per well in a 96-well plate (Greiner Sensoplate, Germany, EU). […]
[…] The effect of GA and DL on dopaminergic neurons was assessed through semi-automatic quantification of neurite length and width of TH+ neurons after treatment. […] Dopaminergic TH^+ neurons were observed using an inverted fluorescence microscope (Olympus) under a 20× objective.

[3] = human, in vivo, 15 weeks
Description: Potential side effects were closely monitored.

HeLa cells [4] = assay: NAD(P)H live-cell microscopy; type: cell-based; details: 5 mM, FIG. 13
Method: All values were referenced to the value obtained before substance addition.
NAD(P)H live-cell microscopy on HeLa cells was performed as previously described. Briefly, NAD(P)H fluorescence intensity time series were performed on a ZEISS LSM880 inverted confocal equipped with an incubation chamber to maintain 37 Celsius degree and 5% of CO2. […] In order to maximize the transmission efficiency of the system in excitation and detection and reduce the aberrations due to the watery environment, a ZEISS Plan C-ApoChromat 40×/1.2 Water lens with depth compensating correction collar was used. […] The sampling factor in XY (pixel size) of each image was equal to 208 nm, which lead to a final resolution of approximately 600 nm. For each image a volume of 5 μm around the specimen central plane was taken by acquiring 3 planes separated by a Z-step of 2.5 μm.
Time series measurements were obtained with 5 min time resolution. Fluorescence intensity levels were extracted using FIJI Image Analysis Freeware

dopaminergic neurons [5] = details: after DJ-1 knock-out or paraquat treatment; cited from earlier work
HeLa cells [6] = assay: Intracellular calcium, Fluo4-AM loaded HeLa cells, fluorescent plate reader; type: cell-based; details: FIG. 12
Description: HeLa cells were loaded with Fluo4-AM and fluorescence was monitored with the help of a fluorescent plate reader. Values are normalized to the initial fluorescent value.

PARK-7 −/− HeLa cells = assay: Cell growth of PARK-7 −/− HeLa cells; type: cell-based, human; details: 5 mM, FIG. 16
Method: GA enhances cell proliferation in PARK-7 −/− HeLa cells. […] Knocking-down PARK-7 with CRISP/Cas-9 leads to a reduced cell proliferation when compared to WT cells. […] Treatment with GA increases cell proliferation in HeLa cells.
Cell growth was determined by two different methods. The first method (WST1-Assay) was used to analyze cell growth at different time points using the same plates: 500 cells of 8 different PARK7 KO clones and HeLa Kyoto wild type cells were seeded in 96 well plates (6 wells/line). For each time point (0 h, 48 h, 122 h, and 144 h), WST1 was added to the cells according to the manufacturers instructions and incubated for 30 min at 37° C. Absorbance was measured at 450 nm and 620 nm using an EnVision Plate Reader (PerkinElmer).
The second method was used to analyze the rescue effect of GA and DL. Briefly, HeLa cells were seeded and treated with medium containing distilled water, 5 mM GA, or 5 mM DL. 48 hours later, the number of living cells was calculated with the help of an automated cell counter (ThermoFischer, USA).
HeLa-Kyoto PARK7 KO clones had been kindly provided by Martin Stewart (Koch Institute, MIT, Cambridge, USA). Briefly, cells were electroporated with the NEON device (Invitrogen) using a sgRNA-Cas9-NLS complex targeting human PARK7 at exon 1. […]

## O=C(O)CO [GA, 2-hydroxyethanoic acid]
[1]
  GA dose at which the concentration of GA in the blood is too low: lower than 50 mg/kg
  concentration in the CSF: ca. 0.33 mM
  concentration in the blood: 2 mM
  concentration in the cerebrospinal fluid relative to blood (lower): about 1:6
Dopaminergic neurons [2]
  morphology of dopaminergic neurons (neurite and axon length, secondary ramifications): increases the length of the neurites and the main axon and the number of secondary ramifications
[3]
  GA dose at which reactive instant feces deposition was observed: above 120 mg/kg
  GA dose leading to reactive instant feces deposition: higher than 150 mg/kg
HeLa cells [4]
  mitochondrial NAD(P)H production: increases mitochondrial NAD(P)H production
Dopaminergic neurons [5]
  survival of dopaminergic neurons: rescued the survival of dopaminergic neurons
HeLa cells [6]
  intracellular calcium (Fluo4-AM fluorescence normalized to initial value): reduce intracellular calcium
PARK-7 −/− HeLa cells
  cell proliferation (number of cells after 48 hours): rescues cell proliferation defects
